In this test the target is T1, full-length SARM1 (FL-SARM1) (Homo sapiens, UniProt Q6SZW1).
T1 sequence (Q6SZW1 28-724): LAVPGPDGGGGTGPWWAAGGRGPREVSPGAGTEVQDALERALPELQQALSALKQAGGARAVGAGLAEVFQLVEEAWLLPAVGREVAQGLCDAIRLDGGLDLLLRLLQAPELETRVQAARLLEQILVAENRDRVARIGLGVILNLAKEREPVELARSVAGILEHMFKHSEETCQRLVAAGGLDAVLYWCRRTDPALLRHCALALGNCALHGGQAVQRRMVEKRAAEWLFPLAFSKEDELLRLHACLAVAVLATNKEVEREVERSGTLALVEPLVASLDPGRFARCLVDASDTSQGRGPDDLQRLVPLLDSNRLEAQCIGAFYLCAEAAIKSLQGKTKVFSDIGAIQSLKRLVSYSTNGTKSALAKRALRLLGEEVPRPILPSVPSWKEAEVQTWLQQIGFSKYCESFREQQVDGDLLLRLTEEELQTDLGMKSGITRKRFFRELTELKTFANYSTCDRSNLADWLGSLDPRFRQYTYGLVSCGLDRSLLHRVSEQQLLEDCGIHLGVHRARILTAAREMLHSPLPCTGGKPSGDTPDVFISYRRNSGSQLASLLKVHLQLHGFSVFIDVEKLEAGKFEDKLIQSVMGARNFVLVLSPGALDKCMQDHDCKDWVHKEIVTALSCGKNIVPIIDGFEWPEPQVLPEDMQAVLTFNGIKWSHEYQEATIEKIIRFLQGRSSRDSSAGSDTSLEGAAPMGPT
The test can be described thus: FL-SARM1 cellular lysate assay (NAD/NADH-Glo detection of remaining NAD+, NMN-activated). The conditions noted are these: 11 point curve.

Description: Preparation of full-length SARM1 (FL-SARM1) lysate: HEK293T cells (ATCC: CRL-3216) were grown on 150 mm TC-treated dishes to 80-90% confluency in complete DMEM (DMEM (Thermo Fisher: 11965175) supplemented with 10% HI—FBS (VWR: 10802-772), 1× Pen/Strep (Thermo Fisher: 15140122), 1×NEAA (Thermo Fisher: 1140050), 1× glutamax (Thermo Fisher: 35050061), and 1 mM sodium pyruvate (Thermo Fisher: 11360070)) at 37° C. and 5% CO2. One hour prior to transfection, the media was replaced with fresh, 37° C. complete DMEM (20 mL per one 150 mm dish) supplemented with additional 10 mM glucose (Alfa Aesar AAJ60067EQE). Per one 150 mm dish, 30 μg FL-SARM1 (SEQ. ID. 1; cloned in-house) plasmid was dissolved in 1 mL DMEM at ambient temperature and were mixed by inverting the tube 8-10 times. 90 μL of GenJet™ in vitro DNA transfection reagent (Ver2) was dissolved in 1 mL DMEM at ambient temperature and were mixed by inverting the tube 8-10 times. The plasmid and transfection agent solutions were combined, mixed by 8-10 inversions and incubated for 10 minutes at ambient temperature. 2 mL of this transfection mixture was added to each dish containing HEK293T cells as prepared above followed by a gentle mixing of 4-5 horizontal rotations. The dishes were incubated at 37° C. and 5% CO2 for 24 h. The dishes were removed from the incubator, the medium was aspirated and the cells were scraped off using cell scrapers in ice-cold 1×PBS (5 mL/dish, Thermo Fisher Scientific 10010023). The collected cells were centrifuged at 300 g for 5 minutes at 4° C. The supernatant was aspirated and the pellet was frozen at −80° C. until needed. The cell pellet from 30 dishes was dissolved in 30 mL 1×PBS supplemented with 4 tablets of Complete, Mini EDTA-free protease inhibitor cocktail at 4° C. This mixture was sonicated on ice for 10 minutes at 50% amplitude with a 1 second on/1 second off interval using a Model 120 sonicator (Thermo Fisher Scientific, FB120110). The lysate was centrifuged at 16000 g for 10 minutes at 4° C.
To a white 384-well Proxiplate (PerkinElmer, PE-6008280) was added 50 nL/well of a DMSO solution containing test compounds followed by 7.5 μL/well of a 0.067 mg/mL solution of SARMi cellular lysate in reaction buffer (DPBS containing CHAPSO (0.1%) and fatty acid free BSA (0.032%)). The plate was centrifuged for 1 minute at 1000 RPM and then placed in an incubator at 23° C. for 15 minutes. To the wells were added 2.5 μL/well of a solution containing 40 M NAD^+ and 4 mM nicotinamide mononucleotide (NMN) in reaction buffer. The plate was centrifuged for 1 min at 1000 RPM, the plate was sealed and placed in an incubator at 23° C. for 3.5 hours before adding 3.5 μL/well of NAD/NADH-Glo™ solution (preparation as described by Promega using the extended detection protocol). The plate was centrifuged for 1 minute at 1000 RPM and then incubated at 23° C. for 20 minutes. 1 μL/well of a 3.625 mM solution of menadione in DMSO was added and the plate was centrifuged for 1 minute at 1000 RPM. Relative light units (RLU) were recorded using an Envision plate reader at a height of 6.5 mm.
IC50 values were calculated from an 11 point curve using ½ log dilutions using a four-parameter logistic regression curve fit.

`Cc1ccc(NC(=O)[C@@H]2CC2(F)F)cc1-c1ccc(C2CC2)cn1` [Example 149, (1S)-N-[3-(5-cyclopropylpyridin-2-yl)-4-methylphenyl]-2,2-difluorocyclopropane-1-carboxamide]: the IC50 (commonly the concentration needed to halve the response being measured) is over 10 µM (Activity (IC50 class)) and 17 µM (Activity (μM) (IC50)).

Consider `O=C(Nc1ccc(C(F)(F)F)c(-c2ccccn2)c1)[C@@H]1CC1(F)F` [Example 150, (1S)-2,2-difluoro-N-[3-pyridin-2-yl-4-(trifluoromethyl)phenyl] cyclopropane-1-carboxamide], for which the IC50 (Activity (IC50 class)) was 1 to 10 µM and the IC50 (Activity (μM) (IC50)) was found to be 3.7 µM.

On to `CC(C)c1ccc(NC(=O)[C@@H]2CC2(F)F)cc1-c1ccccn1` [Example 151, (1S)-2,2-difluoro-N-(4-propan-2-yl-3-pyridin-2-ylphenyl)cyclopropane-1-carboxamide], for which the IC50 was 1 to 10 µM (Activity (IC50 class)) and 4.2 µM (Activity (μM) (IC50)).

As for `COc1ccc(-c2cc(NC(=O)[C@@H]3CC3(F)F)ccc2C)nc1` [Example 152, (1S)-2,2-difluoro-N-[3-(5-methoxypyridin-2-yl)-4-methylphenyl]cyclopropane-1-carboxamide], the IC50 (Activity (IC50 class)) is 1 to 10 µM and the IC50 (Activity (μM) (IC50)) came out at 3.6 µM.

On to `COc1cccc(-c2cc(NC(=O)[C@@H]3CC3(F)F)ccc2C)n1` [Example 153, (1S)-2,2-difluoro-N-[3-(6-methoxypyridin-2-yl)-4-methylphenyl]cyclopropane-1-carboxamide], for which the IC50 reads like this: (Activity (IC50 class)) over 10 µM; (Activity (μM) (IC50)) 18 µM.

Turning to `Cc1ccc(NC(=O)[C@@H]2CC2(F)F)cc1-c1ccc(C(F)(F)F)cn1` [Example 154, (1S)-2,2-difluoro-N-[4-methyl-3-[5-(trifluoromethyl)pyridin-2-yl]phenyl]cyclopropane-1-carboxamide], the IC50 is 1 to 10 µM (Activity (IC50 class)) and 9.9 µM (Activity (μM) (IC50)).

For the molecule `O=C(Nc1ccc(C2CC2)c(-c2ccc(F)cn2)c1)[C@@H]1CC1(F)F` [Example 155, (1S)-N-[4-cyclopropyl-3-(5-fluoropyridin-2-yl)phenyl]-2,2-difluorocyclopropane-1-carboxamide], the IC50 was 1 to 10 µM (Activity (IC50 class)) and 3.5 µM (Activity (μM) (IC50)).

On to `Cc1ccc(NC(=O)[C@@H]2CC2(F)F)cc1-c1ncccc1C` [Example 156, (1S)-2,2-difluoro-N-[4-methyl-3-(3-methylpyridin-2-yl)phenyl]cyclopropane-1-carboxamide], for which the IC50 runs as follows: (Activity (IC50 class)) 1 to 10 µM; (Activity (μM) (IC50)) 2.5 µM.

For `Cc1ccc(NC(=O)[C@@H]2CC2(F)F)cc1-c1cc(C#N)ccn1` [Example 157, (1S)-N-[3-(4-cyanopyridin-2-yl)-4-methylphenyl]-2,2-difluorocyclopropane-1-carboxamide], the IC50 (Activity (IC50 class)) is over 10 µM and 38 µM corresponded to half-maximal inhibition (Activity (μM) (IC50)) (IC50).

Take `Cc1ccc(NC(=O)[C@@H]2CC2(F)F)cc1-c1ccc(C#N)cn1` [Example 158, (1S)-N-[3-(5-cyanopyridin-2-yl)-4-methylphenyl]-2,2-difluorocyclopropane-1-carboxamide]: the IC50 was over 10 µM (Activity (IC50 class)) and 37 µM (Activity (μM) (IC50)).

With `Cc1ccc(NC(=O)[C@@H]2CC2(F)F)cc1-c1cccc(C#N)n1` [Example 159, (1S)-N-[3-(6-cyanopyridin-2-yl)-4-methylphenyl]-2,2-difluorocyclopropane-1-carboxamide], the IC50 is, setting by setting: (Activity (IC50 class)) 1 to 10 µM; (Activity (μM) (IC50)) 9.8 µM.

Consider `Cc1ccc(NC(=O)[C@@H]2CC2(F)F)cc1-c1ccc(Cl)cn1` [Example 160, (1S)-N-[3-(5-chloropyridin-2-yl)-4-methylphenyl]-2,2-difluorocyclopropane-1-carboxamide], for which the IC50 is 1 to 10 µM (Activity (IC50 class)) and 2.5 µM (Activity (μM) (IC50)).

Consider `Cc1ccnc(-c2cc(NC(=O)[C@@H]3CC3(F)F)ccc2C)c1` [Example 161, (1S)-2,2-difluoro-N-[4-methyl-3-(4-methylpyridin-2-yl)phenyl]cyclopropane-1-carboxamide], for which the IC50 (Activity (IC50 class)) was in the range of 1 to 10 µM and the midpoint of inhibition (Activity (μM) (IC50)), the IC50, lay at 3.5 µM.

For the molecule `Cc1ccc(-c2cc(NC(=O)[C@@H]3CC3(F)F)ccc2C)nc1` [Example 162, (1S)-2,2-difluoro-N-[4-methyl-3-(5-methylpyridin-2-yl)phenyl]cyclopropane-1-carboxamide], the IC50 is 1 to 10 µM (Activity (IC50 class)) and 2.5 µM (Activity (μM) (IC50)).

Molecule `Cc1cccc(-c2cc(NC(=O)[C@@H]3CC3(F)F)ccc2C)n1` [Example 163, (1S)-2,2-difluoro-N-[4-methyl-3-(6-methylpyridin-2-yl)phenyl]cyclopropane-1-carboxamide] showed an IC50 (Activity (IC50 class)) of over 10 µM and an IC50 (Activity (μM) (IC50)) of 26 µM.

With `Cc1ccc(NC(=O)CC2CCC2)cc1-c1ccc(F)cn1` [Example 164, 2-cyclobutyl-N-[3-(5-fluoropyridin-2-yl)-4-methylphenyl]acetamide], the IC50 is, setting by setting: (Activity (IC50 class)) 1 to 10 µM; (Activity (μM) (IC50)) 1.4 µM.

Consider `Cc1ccc(NC(=O)CC2CCC2)cc1-c1ncccc1F` [Example 165, 2-cyclobutyl-N-[3-(3-fluoropyridin-2-yl)-4-methylphenyl]acetamide], for which the IC50 was 1 to 10 µM (Activity (IC50 class)) and 5.3 µM (Activity (μM) (IC50)).

In the case of `Cc1ccc(NC(=O)CC2CCC2)cc1-c1cnccn1` [Example 166, 2-cyclobutyl-N-(4-methyl-3-pyrazin-2-ylphenyl)acetamide], the IC50 (Activity (IC50 class)) was over 10 µM and the IC50 (Activity (μM) (IC50)) turned out to be 19 µM.

`Cc1ccc(NC(=O)CC2CCC2)cc1-c1cccnn1` [Example 167, 2-cyclobutyl-N-(4-methyl-3-pyridazin-3-ylphenyl)acetamide]: the IC50 is over 10 µM (Activity (IC50 class)) and 11 µM (Activity (μM) (IC50)).

For the molecule `Cc1ccc(NC(=O)CC2CCC2)cc1-c1ccccn1` [Example 168, 2-cyclobutyl-N-(4-methyl-3-pyridin-2-ylphenyl)acetamide], the IC50 by setting is: (Activity (IC50 class)) 1 to 10 µM; (Activity (μM) (IC50)) 1.3 µM.

As for `Cc1ccc(NC(=O)[C@H]2C[C@H]3C[C@H]3N2)cc1-c1ncc(F)cn1` [Example 170, (1R,3R,5R)—N-(3-(5-fluoropyrimidin-2-yl)-4-methylphenyl)-2-azabicyclo[3.1.0]hexane-3-carboxamide], the IC50 was 1 to 10 µM (Activity (IC50 class)) and 2.7 µM (Activity (μM) (IC50)).

Regarding `Cc1nnc(CN2[C@@H](C(=O)Nc3ccc(C)c(-c4ncc(F)cn4)c3)C[C@H]3C[C@H]32)o1` [Example 171, (1R,3R,5R)—N-(3-(5-fluoropyrimidin-2-yl)-4-methylphenyl)-2-((5-methyl-1,3,4-oxadiazol-2-yl)methyl)-2-azabicyclo[3.1.0]hexane-3-carboxamide], the IC50 was over 10 µM (Activity (IC50 class)) and 18 µM (Activity (μM) (IC50)).

For `CSc1ncc(N2[C@@H](C(=O)Nc3ccc(C)c(-c4ncc(F)cn4)c3)C[C@H]3C[C@H]32)nn1` [Example 172, (1R,3R,5R)—N-(3-(5-fluoropyrimidin-2-yl)-4-methylphenyl)-2-(3-(methylthio)-1,2,4-triazin-6-yl)-2-azabicyclo[3.1.0]hexane-3-carboxamide], the IC50 runs as follows: (Activity (IC50 class)) 1 to 10 µM; (Activity (μM) (IC50)) 6.2 µM.

`Cc1ccc(NC(=O)[C@H]2C[C@H]3C[C@H]3N2c2cncnn2)cc1-c1ncc(F)cn1` [Example 173, (1R,3R,5R)—N-(3-(5-fluoropyrimidin-2-yl)-4-methylphenyl)-2-(1,2,4-triazin-6-yl)-2-azabicyclo[3.1.0]hexane-3-carboxamide] registered an IC50 (Activity (IC50 class)) of 1 to 10 µM and an IC50 (Activity (μM) (IC50)) of 4.2 µM.

On to `Cc1ccc(NC(=O)[C@@H]2C[C@H](C(F)(F)F)CN2c2ncccn2)cc1-c1cccnn1` [Example 174, (2S,4S)—N-(4-methyl-3-(pyridazin-3-yl)phenyl)-1-(pyrimidin-2-yl)-4-(trifluoromethyl)pyrrolidine-2-carboxamide], for which the IC50 is over 10 µM (Activity (IC50 class)) and 25 µM (Activity (μM) (IC50)).

Turning to `Cc1ccc(NC(=O)[C@H]2C[C@@H](C(F)(F)F)CN2c2ncn(C)n2)cc1-c1ncc(F)cn1` [Example 175, (2R,4R)—N-(3-(5-fluoropyrimidin-2-yl)-4-methylphenyl)-1-(1-methyl-1H-1,2,4-triazol-3-yl)-4-(trifluoromethyl)pyrrolidine-2-carboxamide], the IC50 runs as follows: (Activity (IC50 class)) 1 to 10 µM; (Activity (μM) (IC50)) 2.4 µM.

With `Cc1ccc(NC(=O)[C@@H]2C[C@@H]3[C@H](C2)C3(F)F)cc1-c1cccnn1` [Example 176, trans-6,6-difluoro-N-(4-methyl-3-(pyridazin-3-yl)phenyl)bicyclo[3.1.0]hexane-3-carboxamide], the IC50 (Activity (IC50 class)) was over 10 µM and the IC50 (Activity (μM) (IC50)) is 16 µM.

As to `Cc1ccc(NC(=O)[C@H]2C[C@@H]3[C@H](C2)C3(F)F)cc1-c1cccnn1` [Example 177, cis-6,6-difluoro-N-(4-methyl-3-(pyridazin-3-yl)phenyl)bicyclo[3.1.0]hexane-3-carboxamide], the IC50 (Activity (IC50 class)) is over 10 µM and the IC50 (Activity (μM) (IC50)) was determined as 23 µM.

On to `Cc1ccc(NC(=O)OCCc2ccccc2)cc1-c1ncccn1` [Example 178, Phenethyl(4-methyl-3-(pyrimidin-2-yl)phenyl)carbamate], for which the IC50 by setting is: (Activity (IC50 class)) 1 to 10 µM; (Activity (μM) (IC50)) 4.3 µM.

Source of the values: US20250171462A1 (NICO Therapeutics, Inc., priority 2022, published 2025).
